Test results taken from patent US20240124487A1, “BRANCHED MACROCYCLIC 4-(PYRAZOL-5-YL)-INDOLE DERIVATIVES AS INHIBITORS OF MCL-1” (JANSSEN PHARMACEUTICA NV, priority 2020, published 2024).
pKi: −log10 of the molar value.

Tests used:
[1] = test system: MOLP-8 human multiple myeloma cell line; assay: MOLP8 Caspase-Glo 3/7 apoptosis induction assay; format: cell-based; conditions: MOLP-8 cells, 2 hours incubation at 37° C., averaged values over all runs on all batches
Text: MCL-1 is a regulator of apoptosis and is highly over-expressed in tumor cells that escape cell death. The assay evaluates the cellular potency of small-molecule compounds targeting regulators of the apoptosis pathway, primarily MCL-1, Bfl-1, Bcl-2, and other proteins of the Bcl-2 family. Protein-protein inhibitors disrupting the interaction of anti-apoptotic regulators with BH3-domain proteins initiate apoptosis.
The Caspase-Glo® 3/7 Assay is a luminescent assay that measures caspase-3 and -7 activities in purified enzyme preparations or cultures of adherent or suspension cells. The assay provides a proluminescent caspase-3/7 substrate, which contains the tetrapeptide sequence DEVD. This substrate is cleaved to release aminoluciferin, a substrate of luciferase used in the production of light. Addition of the single Caspase-Glo® 3/7 Reagent in an “add-mix-measure” format results in cell lysis, followed by caspase cleavage of the substrate and generation of a “glow-type” luminescent signal.
This assay uses the MOLP-8 human multiple myeloma cell line, which is sensitive to MCL-1 inhibition.
Materials: • Perkin Elmer Envision • Multidrop 384 and small volume dispensing cassettes • Centrifuge • Countess automated cell counter • Countess counting chamber slides • Assay plate: ProxiPlate-384 Plus, White 384-shallow well Microplate • Sealing tape: Topseal A plus • T175 culture flask
Cell cultures were maintained between 0.2 and 2.0×10^6 cells/mL. The cells were harvested by collection in 50 mL conical tubes. The cells were then pelleted at 500 g for 5 mins before removing supernatant and resuspension in fresh pre-warmed culture medium. The cells were counted and diluted as needed.
The assay reagent was prepared by transferring the buffer solution to the substrate vial and mixing. The solution may be stored for up to 1 week at 4° C. with negligible loss of signal.
Compounds were delivered in assay-ready plates (Proxiplate) and stored at −20° C.
Assays always include 1 reference compound plate containing reference compounds. The plates were spotted with 40 nL of compounds (0.5% DMSO final in cells; serial dilution; 30 μM highest conc. 1/3 dilution, 10 doses, duplicates). The compounds were used at room temperature and 4 μL of pre-warmed media was added to all wells except column 2 and 23. The negative control was prepared by adding 1% DMSO in media. The positive control was prepared by adding the appropriate positive control compound in final concentration of 60 μM in media. The plate was prepared by adding 4 μL negative control to column 23, 4 μL positive control to column 2 and 4 μL cell suspension to all wells in the plate. The plate with cells was then incubated at 37° C. for 2 hours. The assay signal reagent is the Caspase-Glo solution described above, and 8 μL was added to all wells. The plates were then sealed and measured after 30 minutes.
The activity of a test compound was calculated as percent change in apoptosis induction as follows: • LC=median of the Low Control values • =Central Reference in Screener • =DMSO • =0% • HC=Median of the High Control values • =Scale Reference in Screener • =30 μM of positive control • =100% apoptosis induction
% Effect (AC50)=100−((sample−LC)/(HC−LC))*100
% Control=(sample/HC)*100
% Control min=((sample−LC)/(HC−LC))*100

[2] = biological target: Myeloid Cell Leukemia 1 (Mcl-1) (Homo sapiens (Human), UniProt Q07820); assay: Terbium labeled Mcl-1 HTRF binding assay (displacement of Cy5-labeled BIM BH3 peptide); conditions: 25 pM Tb-Mcl-1, 8 nM Cy5 Bim peptide, Ki=IC50/(1+[L]/Kd), [L]=8 nM, Kd=10 nM, read-out: TB-MCL1 Ki
Sequence of Myeloid Cell Leukemia 1 (Mcl-1) (Q07820 whole entry): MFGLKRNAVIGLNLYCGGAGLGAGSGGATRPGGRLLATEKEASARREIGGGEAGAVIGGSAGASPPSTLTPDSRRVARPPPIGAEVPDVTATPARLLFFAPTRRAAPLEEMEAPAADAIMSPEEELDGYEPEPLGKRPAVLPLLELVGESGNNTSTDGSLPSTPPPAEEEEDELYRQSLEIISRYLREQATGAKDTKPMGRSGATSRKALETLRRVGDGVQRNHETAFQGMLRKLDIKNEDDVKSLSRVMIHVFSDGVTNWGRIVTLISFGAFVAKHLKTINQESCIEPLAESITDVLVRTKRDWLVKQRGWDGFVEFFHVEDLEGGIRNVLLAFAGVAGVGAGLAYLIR
Experimental: Terbium labeled Myeloid Cell Leukemia 1 (Mcl-1) homogeneous time-resolved fluorescence (HTRF) binding assay utilizing the BIM BH3 peptide (H2N-(C/Cy5Mal) WIAQELRRIGDEFN-OH) as the binding partner for Mcl-1.
This assay evaluated inhibition of the BH3 domain: Mcl-1 interaction by measuring the displacement of Cy5-labeled BIM BH3 peptide (H2N—(C/Cy5Mal) WIAQELRRIGDEFN-OH) in the HTRF assay format.
The following assay and stock buffers were prepared for use in the assay: (a) Stock buffer: 10 mM Tris-HCl, pH=7.5+150 mM NaCl, filtered, sterilized, and stored at 4° C.; and (b) 1× assay buffer, where the following ingredients were added fresh to stock buffer: 2 mM dithiothreitol (DTT), 0.0025% Tween-20, 0.1 mg/mL bovine serum albumin (BSA). The 1×Tb-Mcl-1+Cy5 Bim peptide solution was prepared by diluting the protein stock solution using the 1× assay buffer (b) to 25 pM Tb-Mcl-1 and 8 nM Cy5 Bim peptide.
Using the Acoustic ECHO, 100 nL of 100× test compound(s) were dispensed into individual wells of a white 384-well Perkin Elmer Proxiplate, for a final compound concentration of 1× and final DMSO concentration of 1%. Inhibitor control and neutral control (NC, 100 nL of 100% DMSO) were stamped into columns 23 and 24 of assay plate, respectively. Into each well of the plate was then dispensed 10 μL of the 1×Tb-Mcl-1+Cy5 Bim peptide solution. The plate was centrifuged with a cover plate at 1000 rpm for 1 minute, then incubated for 60 minutes at room temperature with plates covered. The TR-FRET signal was read on an BMG PHERAStar FSX MicroPlate Reader at room temperature using the HTRF optic module (HTRF: excitation: 337 nm, light source: laser, emission A: 665 nm, emission B: 620 nm, integration start: 60 μs, integration time: 400 pts).
The BMG PHERAStar FSX MicroPlate Reader was used to measure fluorescence intensity at two emission wavelengths—665 nm and 620 nm—and report relative fluorescence units (RFU) for both emissions, as well as a ratio of the emissions (665 nm/620 nm)*10,000. The RFU values were normalized to percent inhibition as follows:
% inhibition=(((NC−IC)−(compound−IC))/(NC−IC))*100
where IC (inhibitor control, low signal)=mean signal of 1×Tb-MC1-1+Cy5 Bim peptide+inhibitor control or 100% inhibition of Mcl-1; NC (neutral control, high signal)=mean signal 1×Tb-MC1-1+Cy5 Bim peptide with DMSO only or 0% inhibition
An 11-point dose response curve was generated to determine IC50 values (using GenData) based on the following equation:
Y=Bottom+(Top−Bottom)/(1+10^((log IC50−X)*HillSlope))
where Y=% inhibition in the presence of X inhibitor concentration; Top=100% inhibition derived from the IC (mean signal of Mcl-1+inhibitor control); Bottom=0% inhibition derived from the NC (mean signal of Mcl-1+DMSO); Hillslope=Hill coefficient; and IC50=concentration of compound with 50% inhibition in relation to top/neutral control (NC).
In this assay [L]=8 nM and Kd=10 nM
Representative compounds of the present invention were tested according to the procedure as described above, with results as listed in the Table below (n.d. means not determined).

| SMILES | AC50 [1] | pKi [2] | AC50 ([1]; Homo sapiens, MOLP-8, 2 h) |
| --- | --- | --- | --- |
| C=CC1OCc2cc(n(C)n2)CCc2cc(c3ccc(F)cc3c2)OCCCn2c(C(=O)O)c(C)c3c(c(Cl)ccc32)-c2c1nn(C)c2C (single isomer, unassigned) [Compound 1] | 101 nM | 10.23 |  |
| C=CC1OCc2cc(n(C)n2)CCc2cc(c3ccc(F)cc3c2)OCCCn2c(C(=O)O)c(C)c3c(c(Cl)ccc32)-c2c1nn(C)c2C (single isomer, unassigned) [Compound 2] | 19.5 nM | 10.62 |  |
| COCCC1OCc2cc(n(C)n2)CCc2cc(c3ccc(F)cc3c2)OCCCn2c(C(=O)O)c(C)c3c(c(Cl)ccc32)-c2c1nn(C)c2C (single isomer, unassigned) [Compound 3] | 154 nM | 10.41 |  |
| COCCC1OCc2cc(n(C)n2)CCc2cc(c3ccc(F)cc3c2)OCCCn2c(C(=O)O)c(C)c3c(c(Cl)ccc32)-c2c1nn(C)c2C (single isomer, unassigned) [Compound 4] | 28.4 nM | 11.05 |  |
| COCCOCCC1OCc2cc(n(C)n2)CCc2cc(c3ccc(F)cc3c2)OCCCn2c(C(=O)O)c(C)c3c(c(Cl)ccc32)-c2c1nn(C)c2C (single isomer, unassigned) [Compound 5] |  | 10.96 | 22.6 nM |
| Cc1c(C(=O)O)n2c3ccc(Cl)c(c13)-c1c(nn(C)c1C)C(CCN1CCOCC1)OCc1cc(n(C)n1)CCc1cc(c3ccc(F)cc3c1)OCCC2 (single isomer, unassigned) [Compound 7] |  | 10.96 | 149 nM |
| Cc1c(C(=O)O)n2c3ccc(Cl)c(c13)-c1c(nn(C)c1C)C(CCN1CCN(C)CC1)OCc1cc(n(C)n1)CCc1cc(c3ccc(F)cc3c1)OCCC2 (single isomer, unassigned) [Compound 8] |  | 10.89 | 1160 nM |
| CCOCCC1OCc2cc(n(C)n2)CCc2cc(c3ccc(F)cc3c2)OCCCn2c(C(=O)O)c(C)c3c(c(Cl)ccc32)-c2c1nn(C)c2C (single isomer, unassigned) [Compound 9] |  | 11.05 | 43.6 nM |
| Cc1c(C(=O)O)n2c3ccc(Cl)c(c13)-c1c(nn(C)c1C)C(CCCO)OCc1cc(n(C)n1)CCc1cc(c3ccc(F)cc3c1)OCCC2 (single isomer, unassigned) [Compound 10] | 1060 nM | 10.55 |  |
| Cc1c(C(=O)O)n2c3ccc(Cl)c(c13)-c1c(nn(C)c1C)C(CCCO)OCc1cc(n(C)n1)CCc1cc(c3ccc(F)cc3c1)OCCC2 (single isomer, unassigned) [Compound 11] | 303 nM | 11.00 |  |
| COCCCC1OCc2cc(n(C)n2)CCc2cc(c3ccc(F)cc3c2)OCCCn2c(C(=O)O)c(C)c3c(c(Cl)ccc32)-c2c1nn(C)c2C (single isomer, unassigned) [Compound 12] | 57.8 nM | 10.82 |  |
| Cc1c(C(=O)O)n2c3ccc(Cl)c(c13)-c1c(nn(C)c1C)C(CN1CCOCC1)OCc1cc(n(C)n1)CCc1cc(c3ccc(F)cc3c1)OCCC2 (single isomer, unassigned) [Compound 13] |  | 10.24 | 1370 nM |
| COCCOCC1OCc2cc(n(C)n2)CCc2cc(c3ccc(F)cc3c2)OCCCn2c(C(=O)O)c(C)c3c(c(Cl)ccc32)-c2c1nn(C)c2C (single isomer, unassigned) [Compound 14] |  | 10.74 | 205 nM |
| COCC1OCc2cc(n(C)n2)CCc2cc(c3ccc(F)cc3c2)OCCCn2c(C(=O)O)c(C)c3c(c(Cl)ccc32)-c2c1nn(C)c2C (single isomer, unassigned) [Compound 15] | 66.1 nM | 10.32 |  |
| COCC1OCc2cc(n(C)n2)CCc2cc(c3ccc(F)cc3c2)OCCCn2c(C(=O)O)c(C)c3c(c(Cl)ccc32)-c2c1nn(C)c2C (single isomer, unassigned) [Compound 16] | 230 nM | 9.98 |  |
| Cc1c(C(=O)O)n2c3ccc(Cl)c(c13)-c1c(nn(C)c1C)C(C)OCc1cc(n(C)n1)CCc1cc(c3ccc(F)cc3c1)OCCC2 (single isomer, unassigned) [Compound 17] | 129 nM | 10.38 |  |
| Cc1c(C(=O)O)n2c3ccc(Cl)c(c13)-c1c(nn(C)c1C)C(C)OCc1cc(n(C)n1)CCc1cc(c3ccc(F)cc3c1)OCCC2 (single isomer, unassigned) [Compound 18] | 35.4 nM | 11.00 |  |
| Cc1c(C(=O)O)n2c3ccc(Cl)c(c13)-c1c(nn(C)c1C)C(CC(C)O)OCc1cc(n(C)n1)CCc1cc(c3ccc(F)cc3c1)OCCC2 (single isomer, unassigned) [Compound 19] |  | 10.24 | 1210 nM |
| Cc1c(C(=O)O)n2c3ccc(Cl)c(c13)-c1c(nn(C)c1C)C(CC(C)O)OCc1cc(n(C)n1)CCc1cc(c3ccc(F)cc3c1)OCCC2 (single isomer, unassigned) [Compound 20] | 683 nM | 10.64 |  |
| Cc1nn2c3c1-c1c(Cl)ccc4c1c(C)c(C(=O)O)n4CCCOc1cc(cc4cc(F)ccc14)CCc1cc(nn1C)CCC3OCC2 (stereo not drawn) [Compound 27] | 8.5 nM |  |  |
| Cc1nn2c3c1-c1c(Cl)ccc4c1c(C)c(C(=O)O)n4CCCOc1cc(cc4cc(F)ccc14)CCc1cc(nn1C)CCC3OCC2 (stereo not drawn) [Compound 28] | > 30 nM |  |  |
| Cc1nn2c3c1-c1c(Cl)ccc4c1c(C)c(C(=O)O)n4CCCOc1cc(cc4cc(F)ccc14)CCc1cc(nn1C)CCC3OCC2 (stereo not drawn) [Compound 30] | 52.8 nM |  |  |
| COCCn1nc2cc1CCc1cc(c3ccc(F)cc3c1)OCCCn1c(C(=O)O)c(C)c3c(c(Cl)ccc31)-c1c(C)nn3c1C(CC2)OCC3 (stereo not drawn) [Compound 31] |  |  | 48.6 nM |
